Experiments:
Format in all cases: functional, cell-based
Conditions in all cases: Homo sapiens
MCF7 [1] = test: Cytotoxicity of compound against MCF-7 cell line
A549 = test: Cytotoxicity of compound against A549 cell line
SK-OV-3 = test: Cytotoxicity of compound against SKOV-3 cell line
MCF7 [2] = test: Cytotoxicity of compound against MCF-7/ADR cell line

SMILES	IC50 (MCF7 [1])	IC50 (A549)	IC50 (SK-OV-3)	IC50 (MCF7 [2])
C=C/C=C\[C@H](C)[C@H](OC(N)=O)[C@@H](C)[C@H](O)[C@@H](C)C/C(C)=C\[C@H](C)[C@@H](O)[C@@H](C)/C=C\CCc1cccc(Cl)c1	400 nM	580 nM	380 nM	650 nM
C=C/C=C\[C@H](C)[C@H](OC(N)=O)[C@@H](C)[C@H](O)[C@@H](C)C/C(C)=C\[C@H](C)[C@@H](O)[C@@H](C)/C=C\CCc1cccc(O)c1	130 nM	190 nM	40 nM	390 nM
C=C/C=C\[C@H](C)[C@H](OC(N)=O)[C@@H](C)[C@H](O)[C@@H](C)C/C(C)=C\[C@H](C)[C@@H](O)[C@@H](C)/C=C\CCc1ccc(C)c(O)c1	770 nM	4000 nM	410 nM	4000 nM
C=C/C=C\[C@H](C)[C@H](OC(N)=O)[C@@H](C)[C@H](O)[C@@H](C)C/C(C)=C\[C@H](C)[C@@H](O)[C@@H](C)/C=C\CCc1sccc1C	370 nM	790 nM	370 nM	620 nM
C=C/C=C\[C@H](C)[C@H](OC(N)=O)[C@@H](C)[C@H](O)[C@@H](C)C/C(C)=C\[C@H](C)[C@@H](O)[C@@H](C)/C=C\CCc1cccc(F)c1	370 nM	650 nM	400 nM	500 nM
C=C/C=C\[C@H](C)[C@H](OC(N)=O)[C@@H](C)[C@H](O)[C@@H](C)C/C(C)=C\[C@H](C)[C@@H](O)[C@@H](C)/C=C\CCc1ccc(C)c(F)c1	1000 nM	4000 nM	1000 nM	4000 nM
C=C/C=C\[C@H](C)[C@H](OC(N)=O)[C@@H](C)[C@H](O)[C@@H](C)C/C(C)=C\[C@H](C)[C@@H](O)[C@@H](C)/C=C\CCc1ccsc1	850 nM	4000 nM	440 nM	4000 nM
C=C/C=C\[C@H](C)[C@H](OC(N)=O)[C@@H](C)[C@H](O)[C@@H](C)C/C(C)=C\[C@H](C)[C@@H](O)[C@@H](C)/C=C\CCc1ccc(Oc2ccccc2)cc1	4000 nM	10000 nM	10000 nM	10000 nM
C=C/C=C\[C@H](C)[C@H](OC(N)=O)[C@@H](C)[C@H](O)[C@@H](C)C/C(C)=C\[C@H](C)[C@@H](O)[C@@H](C)/C=C\CCc1cc(O)cc(O)c1	160 nM	310 nM	40 nM	> 1000 nM
C=C/C=C\[C@H](C)[C@H](OC(N)=O)[C@@H](C)[C@H](O)[C@@H](C)C/C(C)=C\[C@H](C)[C@@H](O)[C@@H](C)/C=C\CCc1cccc(OC)c1	330 nM	600 nM	370 nM	500 nM
C=C/C=C\[C@H](C)[C@H](OC(N)=O)[C@@H](C)[C@H](O)[C@@H](C)C/C(C)=C\[C@H](C)[C@@H](O)[C@@H](C)/C=C\CCc1cccc(O)c1C	490 nM	910 nM	270 nM	1000 nM
C=C/C=C\[C@H](C)[C@H](OC(N)=O)[C@@H](C)[C@H](O)[C@@H](C)C/C(C)=C\[C@H](C)[C@@H](O)[C@@H](C)/C=C\CCc1ccccc1	480 nM	510 nM	350 nM	560 nM
C=C/C=C\[C@H](C)[C@H](OC(N)=O)[C@@H](C)[C@H](O)[C@@H](C)C/C(C)=C\[C@H](C)[C@@H](O)[C@@H](C)/C=C\CCc1cc(F)cc(F)c1	600 nM	1000 nM	360 nM	2000 nM
